The values below come from patent publication US9676773B2, “Azaindole derivative” (TAIHO PHARMACEUTICAL CO., LTD., priority 2014, dated 2017).

In assay [1] the target is T1, purified recombinant human JAK1 protein (Homo sapiens, UniProt P23458).
T1 construct: purchased Carna Biosciences, Inc
Nature of the assay: Measurement of JAK1 kinase-inhibitory activity. The assay is classed as biochemical. The conditions noted are these: substrate peptide 1 μM, ATP 75 M (so in the source), 25° C., 120 minutes. The method, then:
1) Measurement of JAK1 Kinase-Inhibitory Activity
The activity of the compound of the present invention to inhibit the activity of JAK1 kinase was measured.
Among materials for the measurement of this inhibitory activity, a substrate peptide and a kinase protein were acquired as follows. As such a substrate peptide, a substrate peptide for QSS Assist™ JAK1-MSA assay kit (Carna Biosciences, Inc.) was purchased. As such a kinase protein, a purified recombinant human JAK1 protein (Carna Biosciences, Inc.) was purchased.
The method for measuring the inhibitory activity is as follows. First, the compounds of the present invention were each dissolved in dimethyl sulfoxide (DMSO), and a serial dilution was then prepared by the use of DMSO. Subsequently, a serial dilution solution of the compound (the final concentration of DMSO upon a kinase reaction: 5.0%) or DMSO (final concentration: 5.0%) was mixed with a solution containing the substrate peptide (final concentration: 1 μM), magnesium chloride (final concentration: 5 mM) and ATP (final concentration: 75 µM) in a buffer for kinase reaction (20 mM HEPES (pH 7.5), 2 mM dithiothreitol and 0.01% Triton X-100). Thereafter, a JAK1 protein was further added to the mixed solution, and the obtained mixture was then incubated at 25° C. for 120 minutes to carry out a kinase reaction. To the reaction solution, EDTA was added to a final concentration of 30 mM, so as to terminate the reaction. Finally, with LabChip EZ Reader II (Perkin Elmer Corp.), an unphosphorylated substrate peptide (S) and a phosphorylated peptide (P) were subjected to microchannel capillary electrophoresis, so that the two peptides were separated from each other and were then detected. The amount of a phosphorylation reaction was obtained based on the heights of the peaks of S and P, and the concentration of the compound capable of inhibiting 50% of the phosphorylation reaction was defined as an IC50 value (nM).

Assay [2] concerns the target T2, purified recombinant human JAK3 protein (Homo sapiens, UniProt P52333).
T2 construct: purchased Carna Biosciences, Inc
T2 sequence (P52333 1-1124): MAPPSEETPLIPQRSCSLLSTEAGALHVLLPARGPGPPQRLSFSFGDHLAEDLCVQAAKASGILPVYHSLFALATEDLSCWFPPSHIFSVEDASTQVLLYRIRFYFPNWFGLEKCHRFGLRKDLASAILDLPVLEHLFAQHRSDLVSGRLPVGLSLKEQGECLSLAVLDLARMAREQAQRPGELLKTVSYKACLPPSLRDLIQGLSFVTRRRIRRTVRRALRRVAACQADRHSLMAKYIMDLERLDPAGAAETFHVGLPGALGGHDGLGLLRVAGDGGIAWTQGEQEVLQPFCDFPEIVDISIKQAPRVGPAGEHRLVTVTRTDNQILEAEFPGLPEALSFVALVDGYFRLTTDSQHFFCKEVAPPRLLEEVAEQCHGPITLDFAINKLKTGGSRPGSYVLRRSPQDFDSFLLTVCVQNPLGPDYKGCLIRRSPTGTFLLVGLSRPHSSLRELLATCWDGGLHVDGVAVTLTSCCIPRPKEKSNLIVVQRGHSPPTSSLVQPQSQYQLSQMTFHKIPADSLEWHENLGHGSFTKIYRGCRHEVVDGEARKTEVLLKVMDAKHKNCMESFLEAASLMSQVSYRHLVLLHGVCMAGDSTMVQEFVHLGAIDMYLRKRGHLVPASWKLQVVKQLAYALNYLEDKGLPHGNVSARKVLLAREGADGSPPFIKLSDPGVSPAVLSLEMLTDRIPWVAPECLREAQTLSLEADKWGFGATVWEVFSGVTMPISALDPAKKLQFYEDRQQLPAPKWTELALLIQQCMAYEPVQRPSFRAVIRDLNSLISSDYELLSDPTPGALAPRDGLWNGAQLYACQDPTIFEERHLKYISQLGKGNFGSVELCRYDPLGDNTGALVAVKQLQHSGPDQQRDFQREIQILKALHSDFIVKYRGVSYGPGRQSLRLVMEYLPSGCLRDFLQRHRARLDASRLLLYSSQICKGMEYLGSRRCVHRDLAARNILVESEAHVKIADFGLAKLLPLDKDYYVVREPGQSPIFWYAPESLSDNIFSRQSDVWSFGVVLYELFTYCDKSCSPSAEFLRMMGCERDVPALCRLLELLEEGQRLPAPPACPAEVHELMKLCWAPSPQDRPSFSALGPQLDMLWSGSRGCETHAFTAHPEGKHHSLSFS
Description: Measurement of JAK3 kinase-inhibitory activity. The conditions noted are these: substrate peptide 1 μM, ATP 5 μM, 25° C., 80 minutes. Format: biochemical. The method, then:
3) Measurement of JAK3 Kinase-Inhibitory Activity
The activity of the compound of the present invention to inhibit the activity of JAK3 kinase was measured.
Among materials for the measurement of this inhibitory activity, a substrate peptide and a kinase protein were acquired as follows. As such a substrate peptide, a substrate peptide for QSS Assist™ JAK3-MSA assay kit (Carna Biosciences, Inc.) was purchased. As such a kinase protein, a purified recombinant human JAK3 protein (Carna Biosciences, Inc.) was purchased.
The method for measuring the inhibitory activity is as follows. First, a serial dilution of the compound of the present invention was prepared by the same method as that described in the above section regarding JAK1. This serial dilution solution (the final concentration of DMSO upon a kinase reaction: 5.0%) or DMSO (final concentration: 5.0%) was mixed with a solution containing the substrate peptide (final concentration: 1 μM), magnesium chloride (final concentration: 5 mM) and ATP (final concentration: 5 μM) in a buffer for kinase reaction (20 mM HEPES (pH 7.5), 2 mM dithiothreitol and 0.01% Triton X-100). Thereafter, a JAK3 protein was further added to the mixed solution, and the obtained mixture was then incubated at 25° C. for 80 minutes to carry out a kinase reaction. To the reaction solution, EDTA was added to a final concentration of 30 mM, so as to terminate the reaction. After termination of the reaction, the measurement and the data analysis were carried out by the same methods as those described in the above section regarding JAK1.

Each structure is given as a SMILES string.

T1 sequence (P23458 whole entry): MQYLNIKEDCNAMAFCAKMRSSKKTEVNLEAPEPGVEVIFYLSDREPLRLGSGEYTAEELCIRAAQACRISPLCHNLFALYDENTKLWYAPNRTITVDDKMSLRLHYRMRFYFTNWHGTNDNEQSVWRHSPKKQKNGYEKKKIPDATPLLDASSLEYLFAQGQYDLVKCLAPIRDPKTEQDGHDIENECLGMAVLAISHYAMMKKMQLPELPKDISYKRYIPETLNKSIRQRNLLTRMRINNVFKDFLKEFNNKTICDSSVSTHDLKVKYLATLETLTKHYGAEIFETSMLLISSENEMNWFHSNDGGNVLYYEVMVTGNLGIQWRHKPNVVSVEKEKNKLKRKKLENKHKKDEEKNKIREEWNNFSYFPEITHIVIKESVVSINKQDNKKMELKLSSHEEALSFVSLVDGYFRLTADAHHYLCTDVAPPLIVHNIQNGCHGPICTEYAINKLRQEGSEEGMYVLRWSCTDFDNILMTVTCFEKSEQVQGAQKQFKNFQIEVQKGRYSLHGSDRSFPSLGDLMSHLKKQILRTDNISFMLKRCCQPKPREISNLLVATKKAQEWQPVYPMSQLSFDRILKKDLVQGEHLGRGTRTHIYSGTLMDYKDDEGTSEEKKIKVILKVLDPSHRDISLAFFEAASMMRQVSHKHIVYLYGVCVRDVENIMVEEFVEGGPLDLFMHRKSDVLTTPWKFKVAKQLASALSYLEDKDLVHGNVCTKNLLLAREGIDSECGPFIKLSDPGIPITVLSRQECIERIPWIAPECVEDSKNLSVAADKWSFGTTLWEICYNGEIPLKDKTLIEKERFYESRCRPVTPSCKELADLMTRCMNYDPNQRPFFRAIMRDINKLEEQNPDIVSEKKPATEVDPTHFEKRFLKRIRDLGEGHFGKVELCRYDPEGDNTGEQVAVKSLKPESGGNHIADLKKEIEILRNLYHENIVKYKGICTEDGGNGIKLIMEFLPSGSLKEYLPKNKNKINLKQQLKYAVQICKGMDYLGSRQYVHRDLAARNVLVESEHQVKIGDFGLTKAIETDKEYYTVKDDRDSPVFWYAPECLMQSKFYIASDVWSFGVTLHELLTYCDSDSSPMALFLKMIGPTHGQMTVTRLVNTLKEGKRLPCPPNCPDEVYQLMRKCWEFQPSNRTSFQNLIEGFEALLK

As to `C1=C(c2ccnc3[nH]ccc23)CCCC1` [Comparative Example 1, reference compound], the IC50 (commonly the concentration at which inhibition is half-maximal) turned out to be 1.2 µM in assay [1] and 0.25 µM in assay [2].

With `C1=C(c2ccnc3[nH]ccc23)CCC1` [Comparative Example 2, 4-(Cyclopent-1-en-1-yl)-1H-pyrrolo[2,3-b]pyridine, reference compound], the IC50 stood at 2.2 µM in assay [1] and 0.35 µM in assay [2].

As for `Cc1nc(-c2c[nH]c3ncc(-c4ccccc4)cc23)cs1` [Comparative Example 3, 2-Methyl-4-(5-phenyl-1H-pyrrolo[2,3-b]pyridin-3-yl)thiazole, reference compound], the values for the IC50 in assay [1] and in assay [2] were 2.9 µM and 0.46 µM, respectively.

For the molecule `C=CC(=O)NC1CCC=C(c2ccnc3[nH]cc(-c4ccccc4)c23)C1` (stereo not drawn) [Compound 1, N-(3-(3-Phenyl-1H-pyrrolo[2,3-b]pyridin-4-yl)cyclohex-3-en-1-yl)acrylamide], the values for the 50% inhibitory concentration (IC50) in assay [1] and in assay [2] were 0.74 µM and under 0.0003 µM, respectively.

Take `C=CC(=O)NC1CCC=C(c2ccnc3[nH]cc(-c4cn[nH]c4)c23)C1` (stereo not drawn) [Compound 3, N-(3-(3-(1H-Pyrazol-4-yl)-1H-pyrrolo[2,3-b]pyridin-4-yl)cyclohex-3-en-1-yl)acrylamide]: the concentration for half-maximal inhibition (IC50) in assay [1] is 1.9 µM; in assay [2] it was under 0.0003 µM.

For the molecule `C=CC(=O)NC1CCC=C(c2ccnc3[nH]cc(-c4cccnc4OC)c23)C1` (stereo not drawn) [Compound 6, N-(3-(3-(2-Methoxypyridin-3-yl)-1H-pyrrolo[2,3-b]pyridin-4-yl)cyclohex-3-en-1-yl)acrylamide], the concentration for half-maximal inhibition (IC50) came out at 1.1 µM in assay [1] and 0.00042 µM in assay [2].

`C=CC(=O)NC1CCC=C(c2ccnc3[nH]cc(-c4ccc(CO)o4)c23)C1` (stereo not drawn) [Compound 10, N-(3-(3-(5-(Hydroxymethyl)furan-2-yl)-1H-pyrrolo[2,3-b]pyridin-4-yl)cyclohex-3-en-1-yl)acrylamide]: the IC50 was 1.9 µM in assay [1] and under 0.0003 µM in assay [2].

`C=CC(=O)NC1CCC=C(c2ccnc3[nH]cc(-c4ccco4)c23)C1` (stereo not drawn) [Compound 12, N-(3-(3-(Furan-2-yl)-1H-pyrrolo[2,3-b]pyridin-4-yl)cyclohex-3-en-1-yl)acrylamide]: the IC50 in assay [1] was 0.78 µM; in assay [2], under 0.0003 µM.

As to `C=CC(=O)NC1CCC=C(c2ccnc3[nH]cc(-c4cc(CO)co4)c23)C1` (stereo not drawn) [Compound 14, N-(3-(3-(4-(Hydroxymethyl)furan-2-yl)-1H-pyrrolo[2,3-b]pyridin-4-yl)cyclohex-3-en-1-yl)acrylamide], the half-inhibitory concentration (IC50) is 3.2 µM in assay [1] and under 0.0003 µM in assay [2].

With `C=CC(=O)NC1CCC=C(c2ccnc3[nH]cc(C4=CCOC4)c23)C1` (stereo not drawn) [Compound 34, N-(3-(3-(2,5-Dihydrofuran-3-yl)-1H-pyrrolo[2,3-b]pyridin-4-yl)cyclohex-3-en-1-yl)acrylamide], the IC50 in assay [1] was 2.4 µM; in assay [2] it was under 0.0003 µM.

Consider `C=CC(=O)NC1CCC=C(c2ccnc3[nH]cc(-c4ccc(F)nc4)c23)C1` (stereo not drawn) [Compound 37, N-(3-(3-(6-Fluoropyridin-3-yl)-1H-pyrrolo[2,3-b]pyridin-4-yl)cyclohex-3-en-1-yl)acrylamide], for which the IC50 was 4.4 µM in assay [1] and under 0.0003 µM in assay [2].

`C=CC(=O)NC1CCC=C(c2ccnc3[nH]cc(-c4cnco4)c23)C1` (stereo not drawn) [Compound 48, N-(3-(3-(Oxazol-5-yl)-1H-pyrrolo[2,3-b]pyridin-4-yl)cyclohex-3-en-1-yl)acrylamide]: the concentration for half-maximal inhibition (IC50) is 2.4 µM in assay [1] and under 0.0003 µM in assay [2].

Regarding `C=CC(=O)NC1CCC=C(c2ccnc3[nH]cc(-c4nnco4)c23)C1` (stereo not drawn) [Compound 49, N-(3-(3-(1,3,4-Oxadiazol-2-yl)-1H-pyrrolo[2,3-b]pyridin-4-yl)cyclohex-3-en-1-yl)acrylamide], the figures for the IC50 in assay [1] and in assay [2] were 3.4 µM and under 0.0003 µM, respectively.

Take `C=CC(=O)NC1CCC=C(c2ccnc3[nH]cc(-c4nn(C)c(=O)o4)c23)C1` (stereo not drawn) [Compound 53, N-(3-(3-(4-Methyl-5-oxo-4,5-dihydro-1,3,4-oxadiazol-2-yl)-1H-pyrrolo[2,3-b]pyridin-4-yl)cyclohex-3-en-1-yl)acrylamide]: the IC50 in assay [1] is 3.9 µM; in assay [2] it was under 0.0003 µM.

Take `C=CC(=O)NC1CCC=C(c2ccnc3[nH]cc(-c4nncs4)c23)C1` (stereo not drawn) [Compound 54]: the IC50 in assay [1] was 6.9 µM; in assay [2], 0.00045 µM.

`C=CC(=O)N[C@H]1CCC=C(c2ccnc3[nH]cc(-c4nnco4)c23)C1` [Compound 55, (S)—N-(3-(3-(1,3,4-Oxadiazol-2-yl)-1H-pyrrolo[2,3-b]pyridin-4-yl)cyclohex-3-en-1-yl)acrylamide]: the IC50 in assay [1] is 1 µM; in assay [2], under 0.0003 µM.

`C=CC(=O)NC1CC=C(c2ccnc3[nH]cc(-c4nnco4)c23)C1` (stereo not drawn) [Compound 57, N-(3-(3-(1,3,4-Oxadiazol-2-yl)-1H-pyrrolo[2,3-b]pyridin-4-yl)cyclopent-3-en-1-yl)acrylamide]: the results for the IC50 in assay [1] and in assay [2] were 3.5 µM and 0.00057 µM, respectively.

For `C=CC(=O)N[C@H]1CCC=C(c2ccnc3[nH]cc(-c4ccno4)c23)C1` [Compound 59], the IC50 in assay [1] is 1.5 µM; in assay [2] it was under 0.0003 µM.
